Assay results reported in US20250179024A1, “AMYLOID AND ASSOCIATED PATHOLOGY MODULATORS AND METHODS THEREOF” (Jawaharlal Nehru Centre for Advanced Scientific Research, priority 2022, published 2025).

Tests used:
[1] = Metal chelation by UV-visible absorbance and fluorescence spectra; assay type: physicochemical; conditions: NMIs 20 μM, Cu or Zn 2.5 to 40 μM
Excerpt: The compounds of the present disclosure (NMIs) were designed to chelate with metals (Cu and Zn) and alleviate the metal-dependent Aβ toxicity. […] The change in absorbance and fluorescence spectra of NMIs were monitored to understand the interaction with Cu(II) and Zn(II). […] The fluorescence intensity of M3 at 525 nm decreased with the increasing concentration of Cu(II) or Zn(II) (FIGS. 6(A & B)).

[2] = biological target: T1, Aβ (Homo sapiens, UniProt P05067); assay: AFM imaging of Aβ samples; conditions: Aβ 10 μM, NMIs 20 μM; FIG. 1C
T1 construct: is a 42 amino acid proteolytic product from the amyloid precursor protein; purchased Invitrogen
T1 sequence (P05067 672-713 limits assumed): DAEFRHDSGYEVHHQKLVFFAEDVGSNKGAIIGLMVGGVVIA
Experimental: AFM imaging was done to understand the morphological characteristics of Aβ and NMI treated samples. The samples from Aβ aggregation inhibition and dissolution studies were used for AFM imaging. 25 μL of sample was drop-casted on freshly cleaved mica substrate. The Aβ samples were allowed to adhere to substrate surface for 15 min, washed with filtered MiliQ water and air dried. The samples were imaged in Scan assist Air mode in Bioscope resolve AFM system (Bruker). The images were processed and analyzed using NanoScope analysis software. […] It has been observed that the oligomers are a highly toxic species compared to Aβ fibrillar aggregates. The ability of NMIs (M3) to inhibit the formation of Aβ oligomers was assessed by dot blot assay. Aβ peptide (10 μM) was incubated with NMIs at 4° C. for 24 h followed by probing with A11 oligomer-specific antibody. […] Native PAGE and western blot analysis was carried out to understand the size distribution of Aβ aggregated species. […] In order to analyse the higher order aggregates not permeable in the gel matrix and the morphological characteristics, Aβ samples were subjected to atomic force microscopy (AFM) imaging.

[3] = biological target: T2, Aβ fibrils (Homo sapiens, UniProt P05067); assay: Dot blot assay of Aβ fibrillar aggregation inhibition (OC antibody); assay type: biochemical; conditions: Aβ 10 μM, NMIs 20 μM, PBS pH 7.4, 37° C., 48 h
T2 construct: is a 42 amino acid proteolytic product from the amyloid precursor protein; purchased Invitrogen
T2 sequence (P05067 672-713 limits assumed): as above
Experimental: Aggregation modulation by toxic Aβ aggregates were assessed and were quantified by dot blot assay. Aβ peptide (10 μM) was dissolved in phosphate buffered saline (PBS, 10 mM, pH 7.4), incubated alone and with NMIs (20 μM) at 37° C. for 48 h. For concentration dependent inhibition, 10 μM Aβ peptide was incubated with 1, 2, 5, 10 and 20 μM of NMIs and incubated. Samples for oligomer inhibition studies were prepared by incubating Aβ alone and with NMIs at 4° C. for 24 and subjected to dot blot analysis. For dissolution studies, Aβ peptide alone was incubated in PBS for 48 h to prepare fibrils and then incubated with NMIs further for 48 h. For dot blot experiment, 5 μL of sample was blotted on activated PVDF (polyvinylidene fluoride) membrane in triplicates and air dried. The membrane was blocked with skimmed milk powder for 1 h at room temperature. The blot paper was washed with tris-buffered saline with 0.01% Tween 20 (TBST) three times for 5 min. Blot paper was treated with fibril specific OC primary antibody (Rabbit, 1:1000 dilution) overnight at 4° C. For oligomers blot A11 anti-oligomer antibody (Rabbit 1:1000) was used. Blot was washed thrice with TBST and treated with HRP-conjugated antirabbit secondary antibody (1:5000 dilutions) for 1 h at room temperature. The bolt was washed thrice for 5 min with TBST and developed with ECL reagent (Biorad) and imaged with ChemiDoc BioRad gel documentation system in autoexposure mode. Blots were analyzed and quantified by ImageJ software. The ability of the NMIs, the compounds of the present disclosure M1-M4 to inhibit Aβ aggregation and dissolve the preformed fibrillar aggregates was evaluated by dot blot assay as explained in Example 2 above. Aβ (10 μM) was incubated alone and with NMIs (20 μM) in phosphate buffer saline (PBS, 10 mM and pH 7.4) at 37° C. for 48 h to form Aβ fibrillar aggregates. The samples were blotted and probed with fibril-selective OC antibody (rabbit anti-human amyloid fibrils). […] M3 was further assessed for inhibitory effect at lower concentrations. […] It has been observed that the oligomers are a highly toxic species compared to Aβ fibrillar aggregates. The ability of NMIs (M3) to inhibit the formation of Aβ oligomers was assessed by dot blot assay. Aβ peptide (10 μM) was incubated with NMIs at 4° C. for 24 h followed by probing with A11 oligomer-specific antibody. […] Native PAGE and western blot analysis was carried out to understand the size distribution of Aβ aggregated species. […] In order to analyse the higher order aggregates not permeable in the gel matrix and the morphological characteristics, Aβ samples were subjected to atomic force microscopy (AFM) imaging.

[4] = biological target: T3, preformed Aβ fibrillar aggregates (Homo sapiens, UniProt P05067); assay: Dot blot assay of dissolution of preformed Aβ fibrillar aggregates; assay type: biochemical; conditions: Aβ aggregates 10 μM, NMIs 20 μM, 48 h
T3 construct: is a 42 amino acid proteolytic product from the amyloid precursor protein; purchased Invitrogen
T3 sequence (P05067 672-713 limits assumed): as above
Experimental: Aggregation modulation by toxic Aβ aggregates were assessed and were quantified by dot blot assay. Aβ peptide (10 μM) was dissolved in phosphate buffered saline (PBS, 10 mM, pH 7.4), incubated alone and with NMIs (20 μM) at 37° C. for 48 h. For concentration dependent inhibition, 10 μM Aβ peptide was incubated with 1, 2, 5, 10 and 20 μM of NMIs and incubated. Samples for oligomer inhibition studies were prepared by incubating Aβ alone and with NMIs at 4° C. for 24 and subjected to dot blot analysis. For dissolution studies, Aβ peptide alone was incubated in PBS for 48 h to prepare fibrils and then incubated with NMIs further for 48 h. For dot blot experiment, 5 μL of sample was blotted on activated PVDF (polyvinylidene fluoride) membrane in triplicates and air dried. The membrane was blocked with skimmed milk powder for 1 h at room temperature. The blot paper was washed with tris-buffered saline with 0.01% Tween 20 (TBST) three times for 5 min. Blot paper was treated with fibril specific OC primary antibody (Rabbit, 1:1000 dilution) overnight at 4° C. For oligomers blot A11 anti-oligomer antibody (Rabbit 1:1000) was used. Blot was washed thrice with TBST and treated with HRP-conjugated antirabbit secondary antibody (1:5000 dilutions) for 1 h at room temperature. The bolt was washed thrice for 5 min with TBST and developed with ECL reagent (Biorad) and imaged with ChemiDoc BioRad gel documentation system in autoexposure mode. Blots were analyzed and quantified by ImageJ software. The fibrillar aggregates were formed by incubating Aβ peptide (10 μM) in PBS (pH 7.4) at 37° C. for 48 h. The aggregate samples were treated with NMIs (20 μM) for 48 h followed by dot blot analysis. […] These studies confirmed that M3 as the potential candidate to dissolve Aβ fibrillar aggregates to possibly nontoxic species.

[5] = biological target: T4, Aβ oligomers (Homo sapiens, UniProt P05067); assay: Dot blot assay of Aβ oligomer inhibition (A11 antibody); assay type: biochemical; conditions: Aβ 10 μM, NMIs 20 μM, 4° C., 24 h
T4 construct: is a 42 amino acid proteolytic product from the amyloid precursor protein; purchased Invitrogen
T4 sequence (P05067 672-713 limits assumed): as above
Experimental: Aggregation modulation by toxic Aβ aggregates were assessed and were quantified by dot blot assay. Aβ peptide (10 μM) was dissolved in phosphate buffered saline (PBS, 10 mM, pH 7.4), incubated alone and with NMIs (20 μM) at 37° C. for 48 h. For concentration dependent inhibition, 10 μM Aβ peptide was incubated with 1, 2, 5, 10 and 20 μM of NMIs and incubated. Samples for oligomer inhibition studies were prepared by incubating Aβ alone and with NMIs at 4° C. for 24 and subjected to dot blot analysis. For dissolution studies, Aβ peptide alone was incubated in PBS for 48 h to prepare fibrils and then incubated with NMIs further for 48 h. For dot blot experiment, 5 μL of sample was blotted on activated PVDF (polyvinylidene fluoride) membrane in triplicates and air dried. The membrane was blocked with skimmed milk powder for 1 h at room temperature. The blot paper was washed with tris-buffered saline with 0.01% Tween 20 (TBST) three times for 5 min. Blot paper was treated with fibril specific OC primary antibody (Rabbit, 1:1000 dilution) overnight at 4° C. For oligomers blot A11 anti-oligomer antibody (Rabbit 1:1000) was used. […] Blots were analyzed and quantified by ImageJ software. […] The ability of NMIs (M3) to inhibit the formation of Aβ oligomers was assessed by dot blot assay. […]

[6] = biological target: T5, Aβ in the presence of Zn (II) (Homo sapiens, UniProt P05067); assay: Zn-dependent Aβ aggregation, native PAGE and western blot; assay type: biochemical; conditions: Aβ 10 μM, Zn (II) 20 μM, NMIs 20 μM, 37° C., 48 h
T5 construct: is a 42 amino acid proteolytic product from the amyloid precursor protein; purchased Invitrogen
T5 sequence (P05067 672-713 limits assumed): as above
Experimental: The samples were prepared by incubating Aβ42 with specific concentration of NMI compounds of present disclosure and metal ions for 48 h and then subjected to 6% native polyacrylamide gel electrophoresis (Native-PAGE) in tris-glycine buffer. The lower molecular weight aggregates permeabilized through the gel and resolved in the gel. Higher molecular aggregates stuck in the upper part of wells and potentially carried in gel. Then the protein was transferred to PVDF membrane for 4 h at cold condition maintained using ice cold transfer buffer and immersing the transfer apparatus in ice. Then the blots were continued similar to dot blots.
The absorbance and fluorescence spectroscopy studies together with mass spectrometry data confirmed the selective Cu (II) or Zn (II) chelation property of M1 and M3. […] Aβ (10 μM) was incubated in the presence of Cu (II) or Zn (II) (20 μM) with NMIs at 37° C. for 48 h and the samples were subjected to native PAGE and western blot analysis. […] Modulation of Zn-dependent Aβ aggregation by M4 was attributed to its two Zn (II) chelation centres. M3 with dopamine and DPA moieties effectively modulated both Cu (II) and Zn (II)-dependent Aβ aggregation. The effect of NMIs on the morphological outcome of metal-dependent Aβ aggregation was visualized by AFM imaging (FIGS. 1E and 1F). Aβ in the presence of Cu (II) and Zn (II) formed dense and thick fibrils.

SMILES: CN(C)c1ccc2c3c(cccc13)C(=O)N(CCN(Cc1ccccn1)Cc1ccccn1)C2=O [M2, 2-(2-(bis(pyridin-2-ylmethyl)amino)ethyl)-6-(dimethylamino)-1H-benzo[de]isoquinoline-1,3(2H)-dione]
- interaction with Cu (II) and Zn (II), change in absorbance spectra [1]: no significant change in the spectra
- morphology of Aβ sample, aggregation inhibition [2]: fibrillar structures
- inhibition of the formation of Aβ fibrils [3]: ~11%
- dissolution efficiency [4]: 25%
- oligomer inhibition [5]: 40%

SMILES: O=C1c2cccc3c(N(Cc4ccccn4)Cc4ccccn4)ccc(c23)C(=O)N1CCN(Cc1ccccn1)Cc1ccccn1 [M4, 6-(bis(pyridin-2-ylmethyl)amino)-2-(2-(bis(pyridin-2-ylmethyl)amino)ethyl)-1H-benzo[de]isoquinoline-1,3(2H)-dione]
- interaction with Cu (II) and Zn (II), change in absorbance spectra [1]: no significant change in the spectra
- morphology of Aβ sample, aggregation inhibition [2]: fibrillar structures
- Zn-dependent Aβ aggregation [6]: reduce Zn-dependent Aβ aggregation
- inhibition of the formation of Aβ fibrils [3]: ~11%
- dissolution efficiency [4]: 43%
